This note sets out measurements from patent US8648201B2, “Aminopyridine derivatives for treating tumors and inflammatory diseases” (MERCK PATENT GmbH, priority 2009, dated 2014).

What all share (assay type): biochemical
Holding throughout (conditions): enzyme

One experiment deals with T1, IRAK-1 (Homo sapiens, UniProt P51617).
T1 construct: His6 (N); Dr.Jaekel Pool B, 232Y08C1.IRK
The experiment can be described thus: Test for the inhibition of IRAK1 (autophosphorylation, flashplate). On the procedure: (§1) The experimental batches are carried out in a flashplate system with 384 wells/microtitre plate. In each case, in order to investigate the inhibition of the autophosphorylation activity of IRAK1, the IRAK1 sample His6-IRAK1 (5.1 nM), 1 μM ATP (with 0.25 μCi of ^33P-ATP/well) and the test substance in 50 μl of conventional experimental solution per well are incubated at 22° C. for 180 min. The test substances are employed in corresponding concentrations (if desired in a dilution series). The control is carried out without test substance. The reaction is stopped using standard methods and washed. The activity of the kinase is measured via the incorporated radioactivity in top count. In order to determine the non-specific kinase reaction (blank value), the experimental batches are carried out in the presence of 1 μM staurosporin. The radioactivity (decompositions per minute) of the blank value (no use of test substance in the presence of 1 μM staurosporin) is subtracted from all other radioactivity values. The controls (kinase activity without test substance) are set equal to 100 percent and all other radioactivity values (after subtracting the blank value) are expressed set in relation thereto (for example in % of the control). IC50 values (50% inhibition) are determined with the aid of statistics programs, such as, for example, RS1.

For another experiment, the target named is T2, IRAK-4 (Homo sapiens, UniProt Q9NWZ3).
T2 construct: His6 (N); Dr.Jaekel
T2 sequence (Q9NWZ3 1-460): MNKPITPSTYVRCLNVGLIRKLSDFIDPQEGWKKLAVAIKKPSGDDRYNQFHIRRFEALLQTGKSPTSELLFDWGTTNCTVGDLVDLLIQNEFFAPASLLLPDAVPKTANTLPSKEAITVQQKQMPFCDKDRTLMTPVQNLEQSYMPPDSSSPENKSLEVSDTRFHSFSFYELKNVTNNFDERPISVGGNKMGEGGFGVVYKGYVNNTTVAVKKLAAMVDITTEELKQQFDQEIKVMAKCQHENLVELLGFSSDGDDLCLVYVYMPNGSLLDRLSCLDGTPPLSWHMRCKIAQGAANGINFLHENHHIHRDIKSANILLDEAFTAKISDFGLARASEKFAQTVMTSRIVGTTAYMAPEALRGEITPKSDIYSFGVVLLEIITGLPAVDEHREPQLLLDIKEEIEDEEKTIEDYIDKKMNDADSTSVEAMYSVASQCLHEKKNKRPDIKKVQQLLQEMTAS
The experiment can be described thus: Test for the inhibition of IRAK4 (flashplate, 33P-ATP). The method, then: as §1, with “case,” for “case, in order to investigate”, “the IRAK4 sample His6-IRAK4 (7.3 nM),” for “the inhibition of”, “the biotinylated substrate peptide STK substrate 1-biotin (Cisbio Bioassays, France) (300” for “the autophosphorylation activity of IRAK1, the IRAK1 sample His6-IRAK1 (5.1”, “nM), 10” for “nM), 1”

A further experiment has as its target T3, PDK1 (Homo sapiens, UniProt O15530).
T3 construct: His6 (N)
T3 sequence (O15530 51-556 limits assumed): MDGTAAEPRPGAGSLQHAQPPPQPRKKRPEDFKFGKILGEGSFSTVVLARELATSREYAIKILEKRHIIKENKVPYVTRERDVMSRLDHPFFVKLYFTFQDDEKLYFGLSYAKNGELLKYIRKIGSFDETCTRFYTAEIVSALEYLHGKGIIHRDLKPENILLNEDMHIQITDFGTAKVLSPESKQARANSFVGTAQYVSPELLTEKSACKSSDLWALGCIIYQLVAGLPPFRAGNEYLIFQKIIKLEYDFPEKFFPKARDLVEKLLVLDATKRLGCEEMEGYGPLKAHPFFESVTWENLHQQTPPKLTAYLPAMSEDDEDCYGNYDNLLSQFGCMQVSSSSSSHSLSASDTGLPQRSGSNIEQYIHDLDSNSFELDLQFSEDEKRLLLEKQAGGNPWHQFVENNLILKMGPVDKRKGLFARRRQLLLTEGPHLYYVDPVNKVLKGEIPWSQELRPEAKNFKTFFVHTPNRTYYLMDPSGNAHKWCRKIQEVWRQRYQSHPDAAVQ
The experiment is described as follows: Test for the inhibition of PDK1 (flashplate, 33P-ATP). The method, then:
The experimental batches are carried out in a flashplate system with 384 wells/microtitration plate.
In each case, the PDK1 sample His6-PDK1(1-50)(3.4 nM), the PDK1 substrate biotin-bA-bA-[…] (400 nM), 4 μM ATP (with 0.2 μCi of ^33P-ATP/well) and the test substance in 50 μl of conventional experimental solution per well are incubated at 30° C. for 60 min. The test substances are employed in corresponding concentrations (if desired in a dilution series). The control is carried out without test substance. The reaction is stopped using standard methods and washed. The activity of the kinase is measured via the incorporated radioactivity in top count. In order to determine the non-specific kinase reaction (blank value), the experimental batches are carried out in the presence of 100 nM staurosporin.
The radioactivity (decompositions per minute) of the blank value (no use of test substance in the presence of staurosporin) is subtracted from all other radioactivity values. The controls (kinase activity without test substance) are set equal to 100 percent and all other radioactivity values (after subtracting the blank value) are expressed set in relation thereto (for example in % of the control).
IC50 values (50% inhibition) are determined with the aid of statistics programmes, such as, for example, RS1.

T1 sequence (P51617 whole entry, species assumed): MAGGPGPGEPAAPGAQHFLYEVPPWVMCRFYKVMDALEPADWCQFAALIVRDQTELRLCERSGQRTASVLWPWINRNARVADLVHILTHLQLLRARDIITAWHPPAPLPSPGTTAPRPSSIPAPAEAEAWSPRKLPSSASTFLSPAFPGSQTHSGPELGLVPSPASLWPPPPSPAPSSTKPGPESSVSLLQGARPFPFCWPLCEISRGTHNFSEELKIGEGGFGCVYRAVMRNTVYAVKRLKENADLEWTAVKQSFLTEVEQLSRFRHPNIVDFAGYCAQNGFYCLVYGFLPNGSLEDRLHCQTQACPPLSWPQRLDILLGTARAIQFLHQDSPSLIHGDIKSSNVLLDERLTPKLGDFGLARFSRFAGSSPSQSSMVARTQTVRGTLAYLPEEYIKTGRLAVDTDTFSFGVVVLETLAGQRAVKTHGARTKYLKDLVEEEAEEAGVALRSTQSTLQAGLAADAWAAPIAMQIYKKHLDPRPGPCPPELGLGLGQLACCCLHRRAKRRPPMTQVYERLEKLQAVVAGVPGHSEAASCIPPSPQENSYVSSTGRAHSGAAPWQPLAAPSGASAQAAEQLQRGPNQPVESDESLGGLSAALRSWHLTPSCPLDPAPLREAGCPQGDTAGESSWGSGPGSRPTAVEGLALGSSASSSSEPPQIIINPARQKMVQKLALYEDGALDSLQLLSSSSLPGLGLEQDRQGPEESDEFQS

For `Cn1cc(-c2cnc(N)c(-c3nc4ccc(-c5ccc(=O)[nH]n5)cc4[nH]3)c2)cn1` [Compound A8, 6-{2-[2-Amino-5-(1-methyl-1H-pyrazol-4-yl)-pyridin-3-yl]-3H-benzimidazol-5-yl}-2H-pyridazin-3-one], the IC50 on IRAK-1 and at IRAK-4 was 0.1 to 10 µM each time.
For `CC1CC(=O)NN=C1c1ccc2[nH]c(-c3cc(-c4cnn(C5CCNCC5)c4)cnc3N)nc2c1` (stereo not shown) [Compound A17, 6-{2-[2-amino-5-(1-piperidin-4-yl-1H-pyrazol-4-yl)-pyridin-3-yl]-1H-benzimidazol-5-yl}-5-methyl-4,5-dihydro-2H-pyridazin-3-one], at PDK1, the IC50 fell in the range of 0.001 to 0.1 µM.
Compound `CC1CC(=O)NN=C1c1ccc2[nH]c(-c3cc(-c4cnn(CC(=O)O)c4)cnc3N)nc2c1` (stereo not shown) [Compound A24, (4-{6-amino-5-[5-(4-methyl-6-oxo-1,4,5,6-tetrahydropyridazin-3-yl)-1H-benzimidazol-2-yl]pyridin-3-yl}pyrazol-1-yl)acetic acid] showed an IC50 on PDK1 of 0.001 to 0.1 µM.
In turn, `CC1CC(=O)NN=C1c1ccc2[nH]c(-c3cc(-c4cnn(CC(=O)N(C)C)c4)cnc3N)nc2c1` (stereo not shown) [Compound A25, 2-(4-{6-amino-5-[5-(4-methyl-6-oxo-1,4,5,6-tetrahydropyridazin-3-yl)-1H-benzimidazol-2-yl]pyridin-3-yl}pyrazol-1-yl)-N,N-dimethylacetamide] displayed an IC50 against PDK1 of 0.001 to 0.1 µM.
On the same count and under the same terms, the value for `CC1CC(=O)NN=C1c1ccc2[nH]c(-c3cc(-c4cnn(CC(=O)N5CCN(C)CC5)c4)cnc3N)nc2c1` (stereo not shown) [Compound A26, 6-[2-(2-Amino-5-{1-[2-(4-methylpiperazin-1-yl)-2-oxoethyl]-1H-pyrazol-4-yl}-pyridin-3-yl)-1H-benzimidazol-5-yl]-5-methyl-4,5-dihydro-2H-pyridazin-3-one] was 0.001 to 0.1 µM.
Regarding `COc1cc2[nH]c(-c3cc(-c4cnn(CC(=O)N5CCCCC5)c4)cnc3N)nc2cc1F` [Compound A30, 2-{4-[6-amino-5-(5-fluoro-6-methoxy-1H-benzimidazol-2-yl)pyridin-3-yl]pyrazol-1-yl}-1-piperidin-1-ylethanone], the IC50 lay in the range of 0.001 to 0.1 µM against IRAK-1 and 0.1 to 10 µM against IRAK-4.
For `Nc1ncc(-c2ccncc2)cc1-c1nc2ccccc2[nH]1` [Compound A32] the same measures were 0.1 to 10 µM and 0.1 to 10 µM.
The matching figures for `Cn1cc(-c2cnc(N)c(-c3nc4ccccc4[nH]3)c2)cn1` [Compound A34]: 0.1 to 10 µM and 0.1 to 10 µM.
On to `Nc1ccc(-c2cnc(N)c(-c3nc4ccccc4[nH]3)c2)cn1` [Compound A35], for which the IC50 at IRAK-1 and against IRAK-4 was 0.1 to 10 µM in each case.
Turning to `Cc1cccc2nc(-c3cc(-c4cnn(C)c4)cnc3N)[nH]c12` [Compound A42], the IC50 against IRAK-1 and against IRAK-4 was 0.1 to 10 µM throughout.
Turning to `Cc1cccc2nc(-c3cc(-c4cnn(CCN5CCOCC5)c4)cnc3N)[nH]c12` [Compound A48], the IC50 on IRAK-1 and against IRAK-4 was 0.1 to 10 µM throughout.
For the compound `Nc1ncc(-c2cnn(C3CCNCC3)c2)cc1-c1nc2ccc(F)cc2[nH]1` [Compound A50], the IC50 was 0.1 to 10 µM against IRAK-1 and 0.001 to 0.1 µM against IRAK-4.
`Nc1ncc(-c2cnn(C3CCNCC3)c2)cc1-c1nc2cc3[nH]c(=O)[nH]c3cc2[nH]1` [Compound A55] registered an IC50 against PDK1 of 0.001 to 0.1 µM.
For `Nc1ncc(-c2cnn(C3CCNCC3)c2)cc1-c1nc2cc(S(N)(=O)=O)ccc2[nH]1` [Compound A62], the IC50 against IRAK-1 and at IRAK-4 was 0.1 to 10 µM each time.
`Cn1cc(-c2cnc(N)c(-c3nc4ccc(CCN)cc4[nH]3)c2)cn1` [Compound A64] yielded an IC50 against PDK1 of 0.001 to 0.1 µM.
Regarding `COc1cc2nc(-c3cc(-c4cnn(C5CCNCC5)c4)cnc3N)[nH]c2cc1OC` [Compound A66], the IC50 at IRAK-1 and against IRAK-4 was 0.1 to 10 µM each time.
For the compound `Nc1ncc(-c2cnn(C3CCNCC3)c2)cc1-c1nc2ccc(Cl)cc2[nH]1` [Compound A70], the IC50 against IRAK-1 is 0.1 to 10 µM; against IRAK-4, 0.001 to 0.1 µM.
For `Cc1cc(Cl)cc2nc(-c3cc(-c4cnn(C5CCNCC5)c4)cnc3N)[nH]c12` [Compound A72] the same measures were 0.1 to 10 µM and 0.1 to 10 µM.
Take `Cn1cc(-c2cnc(N)c(-c3nc4c(F)cc(F)cc4[nH]3)c2)cn1` [Compound A76]: the IC50 is 0.1 to 10 µM at IRAK-1 and over 10 µM against IRAK-4.
On to `COc1ccc2nc(-c3cc(-c4cnn(CCN(C)C)c4)cnc3N)[nH]c2c1` [Compound A94, 5-[1-(2-Dimethylaminoethyl)-1H-pyrazol-4-yl]-3-(6-methoxy-1H-benzimidazol-2-yl)pyridin-2-ylamine], for which the IC50 on IRAK-1 and at IRAK-4 was 0.1 to 10 µM each time.
Consider `COc1ccc2nc(-c3cc(-c4cnn(CCCN(C)C)c4)cnc3N)[nH]c2c1` [Compound A96, 5-[1-(3-Dimethylaminopropyl)-1H-pyrazol-4-yl]-3-(6-methoxy-1H-benzimidazol-2-yl)pyridin-2-ylamine], for which the 50% inhibitory concentration (IC50) against IRAK-1 and against IRAK-4 was 0.1 to 10 µM throughout.
As to `CCn1cc(-c2cnc(N)c(-c3nc4ccc(OC)cc4[nH]3)c2)cn1` [Compound A105, 5-(1-Ethyl-1H-pyrazol-4-yl)-3-(6-methoxy-1H-benzimidazol-2-yl)pyridin-2-ylamine], the IC50 at IRAK-1 and against IRAK-4 was 0.1 to 10 µM each time.
On PDK1, `Cn1cc(-c2cnc(N)c(-c3nc4cc(CC(N)=O)ccc4[nH]3)c2)cn1` [Compound A120, 2-{2-[2-amino-5-(1-methyl-1H-pyrazol-4-yl)pyridin-3-yl]-1H-benzimidazol-5-yl}acetamide] came in with an IC50 of 0.001 to 0.1 µM.
Still for that read-out and setting: under `CC(O)(c1ccccc1)c1ccc2[nH]c(-c3cc(-c4cnn(CCN5CCOCC5)c4)cnc3N)nc2c1` (stereo not shown) [Compound A150, 1-(2-{2-Amino-5-[1-(2-morpholin-4-ylethyl)-1H-pyrazol-4-yl]pyridin-3-yl}-1H-benzimidazol-5-yl)-1-phenylethanol] stands 0.1 to 10 µM.
